Data from the supplement of paper PMC6045584.
± gives the standard deviation of the averaged measurements.

Experiments:
[1] = compound: CNC(=O)c1cc(Oc2ccc(NC(=O)Nc3ccc(Cl)c(C(F)(F)F)c3)cc2)ccn1 [SORAFENIB]; test: surviving fraction relative to DMSO-only wells; higher = less growth inhibition; details: exposure time: 5 days
Method in brief: (§1)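 Each tumour cell line was screened three times, and only lines with replicate Pearson r >0.7 and median Z' >0.3 were kept. Cells in log phase were seeded at 250–500 per well in 384-well plates, left 24 hours, then exposed continuously for five days to inhibitors at 0.5, 1, 5, 10, 50, 100, 500 and 1000 nM. Viability was read as CellTiter-Glo luminescence, with surviving fraction normalised to the median of DMSO-only wells.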

[2] = compound: CNCc1ccc(-c2[nH]c3cc(F)cc4c3c2CCNC4=O)cc1; test: as above; details: exposure time: 5 days
Method in brief: as §1

Test System | surviving fraction ([1]; 0.5 nM) | surviving fraction ([1]; 1 nM) | surviving fraction ([1]; 5 nM) | surviving fraction ([1]; 10 nM) | surviving fraction ([1]; 50 nM) | surviving fraction ([1]; 100 nM) | surviving fraction ([1]; 500 nM) | surviving fraction ([2]; 0.5 nM) | surviving fraction ([2]; 1 nM) | surviving fraction ([2]; 5 nM) | surviving fraction ([2]; 10 nM) | surviving fraction ([2]; 50 nM) | surviving fraction ([2]; 100 nM) | surviving fraction ([2]; 500 nM) | surviving fraction ([2]; 1000 nM) | surviving fraction ([1]; 1000 nM)
G292 BONE | 0.973 ± 0.051 | 0.967 ± 0.034 | 1.01 ± 0.02 | 1.02 ± 0.04 | 1.01 ± 0.058 | 0.96 ± 0.016 | 0.918 ± 0.025 | 0.998 ± 0.075 | 0.981 ± 0.037 | 1.05 ± 0.053 | 0.975 ± 0.012 | 0.9877 ± 0.0081 | 0.932 ± 0.021 | 0.8 ± 0.044 | 0.775 ± 0.035 | –
HCC38 BREAST | 1.19 ± 0.19 | – | 1.27 ± 0.14 | 1.18 ± 0.16 | 1.26 ± 0.29 | 1.32 ± 0.21 | 1.29 ± 0.26 | 0.703 ± 0.16 | 0.805 ± 0.24 | 0.971 ± 0.31 | 0.705 ± 0.14 | 0.528 ± 0.1 | 0.607 ± 0.047 | 0.492 ± 0.22 | 0.45 ± 0.035 | 1.22 ± 0.26
HCC70 BREAST | 1.01 ± 0.069 | 0.976 ± 0.082 | 1.1 ± 0.057 | 1.01 ± 0.032 | 1.22 ± 0.019 | 1.34 ± 0.081 | 1.33 ± 0.032 | 1.07 ± 0.061 | 1.12 ± 0.037 | 1.16 ± 0.098 | 1.1 ± 0.11 | 1.12 ± 0.12 | 1.11 ± 0.017 | 1.12 ± 0.11 | 1.12 ± 0.052 | 1.25 ± 0.16
HMLE3 BREAST | 0.899 ± 0.033 | 1 ± 0.0095 | 1.08 ± 0.084 | 1.1 ± 0.045 | 1.3 ± 0.044 | 1.41 ± 0.045 | 1.41 ± 0.021 | 1.13 ± 0.039 | 1 ± 0.042 | 1.11 ± 0.051 | 1.07 ± 0.051 | 0.986 ± 0.17 | 1.03 ± 0.082 | 0.856 ± 0.14 | 0.879 ± 0.056 | 1.41 ± 0.079
HMT3552 BREAST | 1.1 | 1.03 | – | – | 1.33 | 1.29 | 1.36 | 0.99 ± 0.063 | 0.968 ± 0.043 | 0.95 ± 0.031 | 1 ± 0.0095 | 0.817 ± 0.037 | 0.84 ± 0.022 | 0.78 ± 0.042 | 0.723 ± 0.079 | 1.29
HS578T BREAST | 0.671 ± 0.16 | 0.862 ± 0.077 | 0.766 ± 0.015 | 0.776 ± 0.018 | 0.831 ± 0.15 | 0.794 ± 0.034 | – | 0.959 ± 0.13 | 0.875 ± 0.042 | 0.912 ± 0.11 | 0.927 ± 0.17 | 0.892 ± 0.062 | 0.937 ± 0.067 | 0.763 ± 0.059 | 0.801 ± 0.13 | –
